# Measurements taken from US11884661B2, “3-substituted propionic acids as αV integrin inhibitors” (BRISTOL-MYERS SQUIBB COMPANY, priority 2016, dated 2024).
# Biological target: T1, human αVβ6 (Homo sapiens, UniProt P06756+P18564)
# T1 construct: purchased R & D systems 3817-AV
# Assay: human αVβ6 HTRF binding assay
# Conditions: recombinant human αVβ6 integrin, FITC-conjugated fibronectin
# Experimental: All binding assays used the HTRF (homogeneous time resolved fluorescence) technology from Cisbio International, therefore all assays are described as HTRF binding assays. The assay results for the Examples are listed above together with the characterization data. The HTRF binding assays are established for the following integrins: human αVβ6, human αVβ1, human αVβ3, human αVβ5, and human αVβ8. All assays used the following assay buffer: 20 mM Tris, pH 7.4, 1 mM MgCl2, 1 mM MnCl2, 0.01% Tween 20, and 0.01% BSA. Alternatively, a SPA-based assay was used for evaluation of receptor binding.
# The following describes the components and a representative procedure for the human αVβ6 HTRF binding assay: Recombinant human αVβ6 Integrin (R & D systems, 3817-AV) was biotinylated. Biotinylated human αVβ6 Integrin was added to assay vessel at a final concentration of 1.25 nM. FITC-conjugated fibronectin (Cytoskeleton, FNR02) was then added at the final concentration of 5 nM. The mixture was centrifuged at 600 rpm for three minutes using Thermo Fisher Heraeus Multifuge X3 centrifuge and then incubated at RT for an hour. Streptavidin Terbium (Cisbio international 610STLB) was then added at the final concentration of 0.625 nM. The resulting mixture was centrifuged at 600 rpm for three minutes using Thermo Fisher Heraeus Multifuge X3 centrifuge and then incubated at room temperature overnight in dark before reading HTRF signals.
# T1 sequence (P06756 31-992 limits assumed): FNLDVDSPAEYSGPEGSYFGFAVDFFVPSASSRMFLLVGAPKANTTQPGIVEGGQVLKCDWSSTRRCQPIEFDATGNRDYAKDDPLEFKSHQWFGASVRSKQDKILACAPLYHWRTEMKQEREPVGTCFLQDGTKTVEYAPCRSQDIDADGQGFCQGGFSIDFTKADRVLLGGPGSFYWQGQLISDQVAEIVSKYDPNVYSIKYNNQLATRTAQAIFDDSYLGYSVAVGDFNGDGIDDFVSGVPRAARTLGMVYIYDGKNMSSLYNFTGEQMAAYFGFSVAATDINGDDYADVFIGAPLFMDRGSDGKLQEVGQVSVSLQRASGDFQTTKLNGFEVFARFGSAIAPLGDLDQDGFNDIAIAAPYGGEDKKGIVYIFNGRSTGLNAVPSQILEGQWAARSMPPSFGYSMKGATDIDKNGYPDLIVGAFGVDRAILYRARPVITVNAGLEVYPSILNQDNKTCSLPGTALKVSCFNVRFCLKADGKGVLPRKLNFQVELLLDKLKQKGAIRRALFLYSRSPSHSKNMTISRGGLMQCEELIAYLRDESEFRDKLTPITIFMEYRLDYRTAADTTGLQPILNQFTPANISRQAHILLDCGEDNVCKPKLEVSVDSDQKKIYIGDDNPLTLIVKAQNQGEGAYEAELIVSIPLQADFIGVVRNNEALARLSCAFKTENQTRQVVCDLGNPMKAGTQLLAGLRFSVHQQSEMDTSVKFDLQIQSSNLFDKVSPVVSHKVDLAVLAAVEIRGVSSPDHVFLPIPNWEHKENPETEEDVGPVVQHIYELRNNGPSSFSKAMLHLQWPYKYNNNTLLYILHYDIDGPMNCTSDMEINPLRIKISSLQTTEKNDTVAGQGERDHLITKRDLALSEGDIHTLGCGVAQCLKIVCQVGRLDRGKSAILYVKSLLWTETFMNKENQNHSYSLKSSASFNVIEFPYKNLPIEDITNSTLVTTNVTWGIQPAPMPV
# T1 sequence (P18564 22-707 limits assumed): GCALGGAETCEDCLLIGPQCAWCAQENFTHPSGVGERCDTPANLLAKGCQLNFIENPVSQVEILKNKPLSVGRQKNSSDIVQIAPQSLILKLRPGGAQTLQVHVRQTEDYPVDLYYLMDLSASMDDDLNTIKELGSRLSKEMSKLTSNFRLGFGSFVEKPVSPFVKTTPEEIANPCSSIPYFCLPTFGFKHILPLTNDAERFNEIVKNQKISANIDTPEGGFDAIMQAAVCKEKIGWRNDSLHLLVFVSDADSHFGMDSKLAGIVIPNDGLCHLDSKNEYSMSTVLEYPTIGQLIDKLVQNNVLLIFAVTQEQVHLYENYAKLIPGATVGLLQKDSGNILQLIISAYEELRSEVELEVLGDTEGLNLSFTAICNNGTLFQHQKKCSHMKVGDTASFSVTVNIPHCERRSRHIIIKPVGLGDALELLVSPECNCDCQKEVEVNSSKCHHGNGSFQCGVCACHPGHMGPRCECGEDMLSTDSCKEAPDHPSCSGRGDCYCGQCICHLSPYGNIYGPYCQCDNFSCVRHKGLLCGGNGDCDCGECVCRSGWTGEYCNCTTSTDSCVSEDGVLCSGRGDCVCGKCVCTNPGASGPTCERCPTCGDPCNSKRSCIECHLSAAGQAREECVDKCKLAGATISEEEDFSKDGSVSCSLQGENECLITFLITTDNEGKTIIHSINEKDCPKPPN
row,Structure (SMILES),IC50
1,"O=C(O)CCCNc1cc(C(CC(=O)O)n2nccc2CCCc2ccc3c(n2)NCCC3)ccn1 (racemic) [Example 79, (±)-4-{[4-(2-carboxy-1-{5-[3-(5,6,7,8-tetrahydro-1,8-naphthyridin-2-yl)propyl]-1H-pyrazol-1-yl}ethyl)pyridin-2-yl]amino}butanoic acid]",300 nM
2,"Cc1ncc(C(CC(=O)O)n2ccc(CCCc3ccc4c(n3)NCCCC4)n2)cn1 (racemic) [Example 96, (±)-3-(2-methylpyrimidin-5-yl)-3-(3-(3-(6,7,8,9-tetrahydro-5H-pyrido[2,3-b]azepin-2-yl)propyl)-1H-pyrazol-1-yl)propanoic acid]",17 nM
3,"Cc1ncc(C(CC(=O)O)n2nccc2CCCc2ccc3c(n2)NCCCC3)cn1 (racemic) [Example 99, (±)-3-(2-methylpyrimidin-5-yl)-3-(5-(3-(6,7,8,9-tetrahydro-5/Z-pyrido[2,3-b]azepin-2-yl)propyl)-1H-pyrazol-1-yl)propanoic acid]",410 nM
4,"COc1ccc(C(CC(=O)O)n2ccc(CCCc3ccc4c(n3)NCCCC4)n2)cn1 (racemic) [Example 100, (±)-3-(6-methoxypyridin-3-yl)-3-(3-(3-(6,7,8,9-tetrahydro-5H-pyrido[2,3-b]azepin-2-yl)propyl)-1H-pyrazol-1-yl)propanoic acid]",6.4 nM
5,"COc1ncc(C(CC(=O)O)n2ccc(CCCc3ccc4c(n3)NCCCC4)n2)cn1 (racemic) [Example 103, (±)-3-(2-methoxypyrimidm-5-yl)-3-(3-(3-(6,7,8,9-tetrahydro-5H-pyrido| 2,3-6 |azepin-2-yl)propyl)-1H-pyrazol-1-yl)propanoic acid]",30 nM
6,"COc1ncc(C(CC(=O)O)n2nccc2CCCc2ccc3c(n2)NCCCC3)cn1 (racemic) [Example 106, (±)-3-(2-methoxypyrimidin-5-yl)-3-(5-(3-(6,7,8,9-tetrahydro-5H-pyrido[2,3-b]azepin-2-yl)propyl)-1H-pyrazol-1-yl)propanoic acid]",820 nM
7,"COc1cncc(C(CC(=O)O)n2ccc(CCCc3ccc4c(n3)NCCCC4)n2)c1 (racemic) [Example 107, (±)-3-(5-methoxypyridin-3-yl)-3-(3-(3-(6,7,8,9-tetrahydro-5H-pyrido[2,3-b]azepin-2-yl)propyl)-1H-pyrazol-1-yl)propanoic acid]",4.9 nM
8,"COc1cncc(C(CC(=O)O)n2nccc2CCCc2ccc3c(n2)NCCCC3)c1 (racemic) [Example 108, (±)-3-(5-methoxypyridin-3-yl)-3-(5-(3-(6,7,8,9-tetrahydro-5H-pyrido[2,3-b]azepin-2-yl)propyl)-1H-pyrazol-1-yl)propanoic acid]",170 nM
9,"COc1ccc(C(CC(=O)O)n2ccc(CCCc3ccc4c(n3)NCCC4)n2)cn1 (single isomer, unassigned) [Example 4, 3-(6-Methoxypyridin-3-yl)-3-(3-(3-(5,6,7,8-tetrahydro-1,8-naphthyridin-2-yl)propyl)-1H-pyrazol-1-yl)propanoic acid]",210 nM
10,"COc1ccc(C(CC(=O)O)c2nc(CCCCc3ccc4c(n3)NCCC4)cs2)cc1F (single isomer, unassigned) [Example 36, 3-(3-Fluoro-4-methoxyphenyl)-3-(4-(4-(5,6,7,8-tetrahydro-1,8-naphthyridin-2-yl)butyl)thiazol-2-yl)propanoic acid]",157 nM
11,"COc1ccc(C(CC(=O)O)c2nc(CCCc3ccc4c(n3)NCCC4)cs2)cc1F (single isomer, unassigned) [Example 39, 3-(3-Fluoro-4-methoxyphenyl)-3-(4-(3-(5,6,7,8-tetrahydro-1,8-naphthyridin-2-yl)propyl)thiazol-2-yl)propanoic acid]",23 nM
12,"O=C(O)CC(c1cncc(N2CCOCC2)c1)n1ccc(CCCc2ccc3c(n2)NCCC3)n1 (single isomer, unassigned) [Example 67, 3-[5-(morpholin-4-yl)pyridin-3-yl]-3-{3-[3-(5,6,7,8-tetrahydro-1,8-naphthyridin-2-yl)propyl]-1H-pyrazol-1-yl}propanoic acid]",210 nM
13,"O=C(O)CC(c1cncc(N2CCOCC2)c1)n1ccc(CCCc2ccc3c(n2)NCCC3)n1 (single isomer, unassigned) [Example 68, 3-[5-(morpholin-4-yl)pyridin-3-yl]-3-{3-[3-(5,6,7,8-tetrahydro-1,8-naphthyridin-2-yl)propyl]-1H-pyrazol-1-yl}propanoic acid]",2.8 nM

# The next lines start with the values.
row,IC50,Structure (SMILES)
1,77 nM,"COc1ccc(C(CC(=O)O)c2nc(CCCCc3ccc4c(n3)NCCC4)cs2)cn1 (single isomer, unassigned) [Example 13, 3-(6-Methoxypyridin-3-yl)-3-(4-(4-(5,6,7,8-tetrahydro-1,8-naphthyridin-2-yl)butyl)thiazol-2-yl)propanoic acid]"
2,36 nM,"COc1ccc(C(CC(=O)O)c2nc(CCCc3ccc4c(n3)NCCC4)cs2)cn1 (single isomer, unassigned) [Example 16, 3-(6-Methoxypyridin-3-yl)-3-(4-(3-(5,6,7,8-tetrahydro-1,8-naphthyridin-2-yl)propyl)thiazol-2-yl)propanoic acid]"
3,16 nM,"COc1ccc(C(CC(=O)O)c2ncc(CCCCc3ccc4c(n3)NCCC4)s2)cn1 (single isomer, unassigned) [Example 17, 3-(6-Methoxypyridin-3-yl)-3-(5-(4-(5,6,7,8-tetrahydro-1,8-naphthyridin-2-yl)butyl)thiazol-2-yl)propanoic acid]"
4,6.7 nM,"COc1ccc(C(CC(=O)O)c2ncc(CCCCc3ccc4c(n3)NCCC4)s2)cn1 (single isomer, unassigned) [Example 18, 3-(6-Methoxypyridin-3-yl)-3-(5-(4-(5,6,7,8-tetrahydro-1,8-naphthyridin-2-yl)butyl)thiazol-2-yl)propanoic acid]"
5,44 nM,"COc1ccc(C(CC(=O)O)c2ncc(CCCc3ccc4c(n3)NCCC4)s2)cn1 (single isomer, unassigned) [Example 19, 3-(6-Methoxypyridin-3-yl)-3-(5-(3-(5,6,7,8-tetrahydro-1,8-naphthyridin-2-yl)propyl)thiazol-2-yl)propanoic acid]"
6,18 nM,"COc1ccc(C(CC(=O)O)c2ncc(CCCc3ccc4c(n3)NCCC4)s2)cn1 (single isomer, unassigned) [Example 20, 3-(6-Methoxypyridin-3-yl)-3-(5-(3-(5,6,7,8-tetrahydro-1,8-naphthyridin-2-yl)propyl)thiazol-2-yl)propanoic acid]"
7,5.9 nM,"COc1ccc(C(CC(=O)O)c2ncc(CCCCc3ccc4c(n3)NCCC4)s2)cc1F (single isomer, unassigned) [Example 41, (3-Fluoro-4-methoxyphenyl)-3-(5-(4-(5,6,7,8-tetrahydro-1,8-naphthyridin-2-yl)butyl)thiazol-2-yl)propanoic acid]"
8,28 nM,"COc1ccc(C(CC(=O)O)c2ncc(CCCc3ccc4c(n3)NCCC4)s2)cc1F (single isomer, unassigned) [Example 42, 3-(3-Fluoro-4-methoxyphenyl)-3-(5-(3-(5,6,7,8-tetrahydro-1,8-naphthyridin-2-yl)propyl)thiazol-2-yl)propanoic acid]"
9,18 nM,"COc1ccc(C(CC(=O)O)c2ncc(CCCc3ccc4c(n3)NCCC4)s2)cc1F (single isomer, unassigned) [Example 43, 3-(3-Fluoro-4-methoxyphenyl)-3-(5-(3-(5,6,7,8-tetrahydro-1,8-naphthyridin-2-yl)propyl)thiazol-2-yl)propanoic acid]"
